Here are results for four molecules from PMC6221475 (Bioorganic & medicinal chemistry letters, 2018).

For data set [1], the target named is T1, VAChT (Homo sapiens, UniProt Q16572).
T1 sequence (Q16572 1-532): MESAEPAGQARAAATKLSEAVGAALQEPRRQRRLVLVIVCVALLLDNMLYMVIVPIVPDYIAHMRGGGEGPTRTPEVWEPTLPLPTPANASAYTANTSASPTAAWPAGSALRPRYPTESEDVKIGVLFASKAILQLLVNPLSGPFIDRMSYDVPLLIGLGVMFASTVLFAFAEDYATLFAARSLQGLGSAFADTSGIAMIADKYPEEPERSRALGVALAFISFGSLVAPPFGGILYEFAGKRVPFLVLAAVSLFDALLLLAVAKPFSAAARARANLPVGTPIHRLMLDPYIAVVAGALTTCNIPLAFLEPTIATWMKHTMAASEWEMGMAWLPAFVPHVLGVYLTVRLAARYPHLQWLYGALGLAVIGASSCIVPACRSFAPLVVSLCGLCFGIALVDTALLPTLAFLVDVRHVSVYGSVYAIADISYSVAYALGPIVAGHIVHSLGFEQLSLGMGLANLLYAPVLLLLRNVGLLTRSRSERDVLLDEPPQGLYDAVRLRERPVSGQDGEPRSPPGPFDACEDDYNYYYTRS
The experiment in a line: VAChT competitive binding assay with tritiated vesamicol. The note with it: read-out: Ki-VAChT; tritiated vesamicol as competitive radioligand.

The target in the next data set is σ1 receptors. The experiment in a line: σ1 receptor in vitro binding assay with [3H]pentazocine.
For a further data set, the target named is σ2 receptors. The experiment in a line: σ2 receptor in vitro binding assay with [3H]DTG.
For data set [2], the system named is VAChT. The note with it: cited from earlier work.
The subject of data set [3] is VAChT. The note with it: cited from earlier work. This is another data set of the same source.

By Ki is commonly meant the dissociation constant of the complex between target and ligand, obtained from inhibition or displacement. As for `O=C(c1ccc(F)cc1)C1CCN(C2Cc3c(O)cccc3CC2O)CC1` (single isomer, unassigned; (-)) [(−)-1, (−)-(1-(3,8-Dihydroxy-1,2,3,4-tetrahydronaphthalen-2-yl)piperidin-4-yl)(4-fluorophenyl)methanone], the Ki is 4.62 ± 0.22 nM on VAChT [1]; 2010 ± 450 nM on σ1 receptors (read-out: Ki-σ1, [3H]pentazocine as radioligand); above 10000 nM on σ2 receptors (read-out: Ki-σ2, [3H]DTG as radioligand). Moreover, the VAChT/σ1 with σ1 receptors (selectivity ratio for VAChT over σ1) was 435. Also, in the data set with σ2 receptors (selectivity ratio for VAChT over σ2), the VAChT/σ2 is given as 2165.

In the case of `OC1Cc2cccc(OCC[18F])c2CC1N1CCC(c2ccccc2)CC1` (single isomer, unassigned; (-)) [[^18F]FEOBV, (−)-5-[^18F]fluoroethoxybenzovesamicol], the “time required to equilibrate in the striatum” value in the data set with VAChT [2] (human, PET, ref [11], [16], [17]) was “over 6 h”.

Regarding `O=C(c1ccc(F)cc1)C1CCN(C2Cc3c(cccc3OCC[18F])CC2O)CC1` (single isomer, unassigned; (-)) [[^18F]VAT, (−)-(1-(8-(2-[^18F]fluoroethoxy)-3-hydroxy-1,2,3,4tetrahydro-naphthalen-2-yl)-piperidin-4-yl)(4-fluorophenyl)-methanone], in the data set on VAChT [3] (NHP brain, at 15 min, ref [23]), the “standardized uptake value (SUV) at peak uptake” value is given as 5.1. Besides, in the data set with VAChT [3] (NHP brain, ref [23]), the “uptake ratio of target (striatum) to non-target (cerebellum)” value is 3.0. Moreover, the “time of peak uptake in the brain” value with VAChT [3] (in vivo) was 15 min.

Take `OC1Cc2cccc([123I])c2CC1N1CCC(c2ccccc2)CC1` (single isomer, unassigned; (-)) [[^123I]IBVM, (−)-5-[^123I]iodo-benzovesamicol]: the “time of peak uptake in the target regions post-injection” value with VAChT [2] (human subjects, SPECT, ref [10], [13]–[15]) was “at least 6 h”.
